{
  "source": "patent US7104958B2",
  "about": "“Systems and methods for investigating intracranial pressure” (New Health Sciences, Inc., priority 2001, dated 2006)",
  "tested_on": "cerebral vessels",
  "procedure": "These are the symptoms upon presentation in the neurological clinic. Transcranial Doppler analysis of all cerebral vessels is performed in addition to analyzing the common carotid artery and the internal carotid artery.\nThe physician considers prescription of Plavix together with a calcium channel blocker. Transcranial Doppler analysis was performed at monthly intervals. […] The physician subsequently administers a higher dose. Again, transcranial Doppler analysis is performed on all cerebral vessels.\nThe patient is then monitored on a monthly basis after the initial prescription of Plavix in order to determine whether vascular changes are occurring which necessitate alteration in the therapy.",
  "key": {"[1]": {"settings": "same patient, higher dose, transcranial Doppler on all cerebral vessels"}},
  "data": [
    {"smiles": "COC(=O)[C@H](c1ccccc1Cl)N1CCc2sccc2C1", "note": "[Plavix]", "values": [
      {"measurement": "changes in the individual cerebral vessels", "setting": "person after first stroke, Plavix +/- calcium channel blocker, initial dose, transcranial Doppler at monthly intervals", "value": "no effect on the cerebral vessels"},
      {"measurement": "auto-regulation curve", "setting": "[1]", "value": "left-shifts toward normal"},
      {"measurement": "pulsatility index", "setting": "[1]", "value": "decreases"}
    ]}
  ]
}
